# Where a SMILES comes first, the peptide text is derived from it. [ ]: non-standard residue; d: D form. F2Pmp = N[CH](Cc1ccc(C(F)(F)P(=O)(O)O)cc1)C(=O)O
# Experiments:
# TC-PTP = TC-PTP (Homo sapiens (Human), UniProt P17706); experiment: PTP activity assay with pNPP substrate, TC-PTP; assay type: biochemical; conditions: for IC50: 2 mM pNPP, DMG buffer, 25° C., Table 1, read-out: IC50 for TC-PTP
# Procedure: (§1) The PTP activity was assayed using p-nitrophenyl phosphate (pNPP) as a substrate in DMG buffer at 25° C. […] The reaction rate was measure using a SPECTRAMAX microplate spectrophotometer (Molecular Devices). For the determination of Km, the initial velocity and substrate concentration data were fitted to Michaelis-Menten equation using SIGMAPLOT. […] The assays were performed in 96-well plates. […] The reaction rate was measured using a Spectra Max Plus 384 Microplate Spectrophotometer (Molecular Devices). […] The reactions were incubated at room temperature for 30 min and quenched with 5N NaOH. The absorbance at 405 nm was read on the SpectraMax Plus 384 Microplate Spectrophotometer. For the reversibility test, the enzyme was incubated with the inhibitor at room temperature for 30 min before pNPP was added to initiate the reaction. The reaction was then incubated at room temperature for 30 min and quenched and read. […] Data were fitted using SigmaPlot Enzyme Kinetics Module (Systat Software, Inc.)
# PTP1B = PTP1B (Homo sapiens (Human), UniProt P18031); experiment: PTP activity assay with pNPP substrate, PTP1B; assay type: biochemical; conditions: 2 mM pNPP, DMG buffer, 25° C.; Table 1
# PTP1B, sequence (P18031 whole entry, species assumed): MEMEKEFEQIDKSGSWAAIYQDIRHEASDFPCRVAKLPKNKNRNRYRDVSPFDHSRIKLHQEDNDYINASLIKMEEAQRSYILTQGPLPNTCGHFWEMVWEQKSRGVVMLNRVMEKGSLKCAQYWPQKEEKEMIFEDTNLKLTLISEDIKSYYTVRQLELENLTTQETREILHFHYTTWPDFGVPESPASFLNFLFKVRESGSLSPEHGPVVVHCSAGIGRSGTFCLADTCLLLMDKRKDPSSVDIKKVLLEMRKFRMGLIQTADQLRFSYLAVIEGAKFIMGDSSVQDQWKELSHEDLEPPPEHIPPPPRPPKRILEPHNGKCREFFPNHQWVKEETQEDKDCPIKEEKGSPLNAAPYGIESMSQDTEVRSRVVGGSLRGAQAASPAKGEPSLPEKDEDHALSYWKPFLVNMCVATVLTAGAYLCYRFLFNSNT
# Procedure: as §1
# TC-PTP, sequence (P17706 whole entry): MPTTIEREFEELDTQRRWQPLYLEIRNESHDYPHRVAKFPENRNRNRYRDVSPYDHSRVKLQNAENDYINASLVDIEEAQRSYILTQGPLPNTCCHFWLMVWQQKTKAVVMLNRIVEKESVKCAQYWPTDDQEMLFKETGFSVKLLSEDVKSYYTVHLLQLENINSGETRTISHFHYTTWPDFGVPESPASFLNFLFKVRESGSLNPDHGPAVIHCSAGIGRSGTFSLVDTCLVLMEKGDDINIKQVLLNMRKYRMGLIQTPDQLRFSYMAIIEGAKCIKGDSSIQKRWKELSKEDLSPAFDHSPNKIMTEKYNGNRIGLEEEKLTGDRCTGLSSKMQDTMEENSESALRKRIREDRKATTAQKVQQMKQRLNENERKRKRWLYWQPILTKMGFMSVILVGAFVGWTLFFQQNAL
IC50 (TC-PTP) [nM],IC50 (PTP1B) [nM],selectivity for TC-PTP over PTP1B (TC-PTP; TC-PTP versus PTP1B) [fold],fold lower TC-PTP IC50 than parent compound 4 (TC-PTP; relative to compound 4) [fold],SMILES,change in selectivity against PTP1B relative to 6 (TC-PTP; relative to compound 6),fold increase in affinity for TC-PTP relative to 6 (TC-PTP; relative to compound 6) [fold]
2000,2000,–,–,CC(=O)NCCCCC(NC(=O)C(Cc1ccc(C(F)(F)P(=O)(O)O)cc1)NC(C)=O)C(N)=O (stereo not shown) [Compound 4] (Ac-[F2Pmp]-Lys(Ac)-NH2; configuration not given here),–,–
160 ± 20,700 ± 20,4.4,12.5,CCc1ccc(C(=O)NCCCCC(NC(=O)C(Cc2ccc(C(F)(F)P(=O)(O)O)cc2)NC(C)=O)C(N)=O)cc1 (stereo not shown) [Compound 6],–,–

SMILES,IC50 (TC-PTP) [nM],IC50 (PTP1B) [nM],selectivity for TC-PTP over PTP1B (TC-PTP; TC-PTP versus PTP1B) [fold],fold lower TC-PTP IC50 than parent compound 4 (TC-PTP; relative to compound 4) [fold],change in selectivity against PTP1B relative to 6 (TC-PTP; relative to compound 6),fold increase in affinity for TC-PTP relative to 6 (TC-PTP; relative to compound 6) [fold]
CCc1ccc(C(=O)NCCCCC(NC(=O)C(Cc2ccc(C(F)(F)P(=O)(O)O)cc2)NC(=O)C(Cc2ccccc2)NC(C)=O)C(N)=O)cc1 (stereo not shown) [Compound 8],26 ± 2,87 ± 2,–,–,no appreciable change,6.2

# Source: patent US9217012B2, “Inhibitors of protein tyrosine phosphatases” (Indiana University Research and Technology Corporation, priority 2009, dated 2015)
